Assay results from US9617244B2, “Antibacterial quinoline derivatives” (JANSSEN PHARMACEUTICA NV, priority 2012, dated 2017).
In brackets after ≈: the same amount, converted by molar mass.

Legend:
[1] = system: Staphylococcus aureus (ATCC29213); assay: In-vitro anti-bacterial activity, microtitre plate assay, IC90 determination (non-mycobacterial strains); assay type: cell-based; conditions: 90% inhibitory concentration for bacterial growth, resazurin fluorescence; for IC90 STA B29213: 24 hours; for IC90: Staphylococcus aureus, ATCC29213, 24 h, read-out: IC90 STA B29213
Summary of the method: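 Growth inhibition measured fluorometrically with resazurin (530/590 nm) after overnight 37 °C incubation under normal atmosphere. Bacteria added at roughly 100 TCID50 per well in Mueller-Hinton broth to five-fold compound dilution series; IC90 reported in μg/ml.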

[2] = system: Mycobacterium smegmatis (ATCC607); assay: In-vitro anti-bacterial activity against strain M. Smegmatis ATCC607; assay type: cell-based; conditions: 90% inhibitory concentration for bacterial growth, Alamar Blue fluorescence; for IC90 MSM 607: 48 hours; for IC90: Mycolicibacterium smegmatis, ATCC607, 48 h, read-out: IC90 MSM 607
Summary of the method: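 IC90 (μg/ml) derived from Alamar Blue fluorescence (530/590 nm) after 48 h growth at 37 °C under 5% CO2. About 250 CFU per well in Mueller-Hinton broth faced five-fold serial compound dilutions in BSA-containing wells.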

Row | IC90 STA B29213 [1] [µg/mL] | IC90 MSM 607 [2] [µg/mL] | IC90 [2] [µg/mL] | IC90 [1] [µg/mL] | Compound
1 | 3.51 (≈ 6.31 µM) | 7.00 (≈ 12.6 µM) | – | – | O=c1[nH]c2ccc(Br)cc2cc1C(c1ccc(Cl)cc1)C1(O)CCNCC1Cc1cccc(F)c1 (centres unmarked) [Compound 336]
2 | 2.36 (≈ 4.25 µM) | – | 4.71 (≈ 8.47 µM) | – | O=c1[nH]c2ccc(Br)cc2cc1C(c1ccc(Cl)cc1)C1(O)CCNC(Cc2ccc(F)cc2)C1 (centres unmarked) [Compound 341]
3 | 7.46 (≈ 13.4 µM) | 3.74 (≈ 6.73 µM) | – | – | O=c1[nH]c2ccc(Br)cc2cc1C(c1ccc(Cl)cc1)C1(O)CCNC(Cc2ccc(F)cc2)C1 (centres unmarked) [Compound 342]
4 | – | – | 4.35 (≈ 8.51 µM) | 6.9 (≈ 13.5 µM) | O=c1[nH]c2ccc(Cl)cc2cc1C(c1ccc(Cl)cc1)C1(O)CCNC(Cc2ccc(F)cc2)C1 (centres unmarked) [Compound 343]
5 | 3.46 (≈ 6.77 µM) | 8.68 (≈ 17 µM) | – | – | O=c1[nH]c2ccc(Cl)cc2cc1C(c1ccc(Cl)cc1)C1(O)CCNC(Cc2ccc(F)cc2)C1 (centres unmarked) [Compound 344]
6 | 4.38 (≈ 8.34 µM) | 3.48 (≈ 6.62 µM) | – | – | COc1nc2ccc(Cl)cc2cc1C(c1ccc(Cl)cc1)C1(O)CCNC(Cc2ccc(F)cc2)C1 (centres unmarked) [Compound 345]
7 | 2.13 (≈ 4.05 µM) | 1.69 (≈ 3.22 µM) | – | – | COc1nc2ccc(Cl)cc2cc1C(c1ccc(Cl)cc1)C1(O)CCNC(Cc2ccc(F)cc2)C1 (centres unmarked) [Compound 346]
8 | 4.27 (≈ 8.13 µM) | 1.70 (≈ 3.24 µM) | – | – | COc1nc2ccc(Cl)cc2cc1C(c1ccc(Cl)cc1)C1(O)CCNC(Cc2ccc(F)cc2)C1 (centres unmarked) [Compound 347]
9 | 4.19 (≈ 7.97 µM) | 1.67 (≈ 3.18 µM) | – | – | COc1nc2ccc(Cl)cc2cc1C(c1ccc(Cl)cc1)C1(O)CCNC(Cc2ccc(F)cc2)C1 (centres unmarked) [Compound 348]
10 | 7.04 (≈ 13.5 µM) | 7.04 (≈ 13.5 µM) | – | – | CSc1ccc(C(c2cc3cc(Cl)ccc3[nH]c2=O)C2(O)CCNC(c3ccc(F)cc3C)C2)cc1 (centres unmarked) [Compound 349]
11 | 2.80 (≈ 5.35 µM) | 1.77 (≈ 3.38 µM) | – | – | CSc1ccc(C(c2cc3cc(Cl)ccc3[nH]c2=O)C2(O)CCNC(c3ccc(F)cc3C)C2)cc1 (centres unmarked) [Compound 350]
12 | 2.18 (≈ 4.06 µM) | 1.73 (≈ 3.22 µM) | – | – | COc1nc2ccc(Cl)cc2cc1C(c1ccc(SC)cc1)C1(O)CCNC(c2ccc(F)cc2C)C1 (centres unmarked) [Compound 353]
13 | 3.95 (≈ 7.35 µM) | 3.14 (≈ 5.85 µM) | – | – | COc1nc2ccc(Cl)cc2cc1C(c1ccc(SC)cc1)C1(O)CCNC(c2ccc(F)cc2C)C1 (centres unmarked) [Compound 354]
14 | – | – | 10.2 (≈ 21.5 µM) | 12.8 (≈ 27.1 µM) | C=CC1CC(O)(C(c2ccc(Cl)cc2)c2cc3cc(Br)ccc3[nH]c2=O)CCN1 (centres unmarked) [Compound 359]
15 | 12.82 (≈ 27.1 µM) | 6.42 (≈ 13.6 µM) | – | – | C=CC1CC(O)(C(c2ccc(Cl)cc2)c2cc3cc(Br)ccc3[nH]c2=O)CCN1 (centres unmarked) [Compound 360]
16 | 12.82 (≈ 27.1 µM) | 6.42 (≈ 13.6 µM) | – | – | C=CC1CC(O)(C(c2ccc(Cl)cc2)c2cc3cc(Br)ccc3[nH]c2=O)CCN1 (centres unmarked) [Compound 361]
17 | 12.82 (≈ 27.1 µM) | 10.18 (≈ 21.5 µM) | – | – | C=CC1CC(O)(C(c2ccc(Cl)cc2)c2cc3cc(Br)ccc3[nH]c2=O)CCN1 (centres unmarked) [Compound 362]
18 | 1.87 (≈ 3.36 µM) | 3.74 (≈ 6.73 µM) | – | – | O=c1[nH]c2ccc(Br)cc2cc1C(c1ccc(Cl)cc1)C1(O)CCNC(Cc2ccc(F)cc2)C1 (centres unmarked) [Compound 363]
19 | 3.74 (≈ 6.73 µM) | 2.97 (≈ 5.34 µM) | – | – | O=c1[nH]c2ccc(Br)cc2cc1C(c1ccc(Cl)cc1)C1(O)CCNC(Cc2ccc(F)cc2)C1 (centres unmarked) [Compound 364]
20 | 3.74 (≈ 6.73 µM) | 3.74 (≈ 6.73 µM) | – | – | O=c1[nH]c2ccc(Br)cc2cc1C(c1ccc(Cl)cc1)C1(O)CCNC(Cc2ccc(F)cc2)C1 (centres unmarked) [Compound 365]
21 | 17.71 (≈ 31.1 µM) | 14.06 (≈ 24.7 µM) | – | – | COc1nc2ccc(Cl)cc2cc1C(c1ccc(S(C)(=O)=O)cc1)C1(O)CCNC(c2ccc(F)cc2C)C1 (centres unmarked) [Compound 368]
22 | 9.12 (≈ 16 µM) | 4.57 (≈ 8.03 µM) | – | – | COc1nc2ccc(Cl)cc2cc1C(c1ccc(S(C)(=O)=O)cc1)C1(O)CCNC(c2ccc(F)cc2C)C1 (centres unmarked) [Compound 369]
